Data set [1] has as its system activated human neutrophils. The data set is described as follows: Neutrophil-mediated degradation (peptide remaining in incubations with activated human neutrophils). Format: in vitro ADME. To be noted: incubation with activated human neutrophils; compared to parent peptide CR-AnxA1_2-50; mean ± SEM of n = 4 distinct incubations. The method, then: Therefore, we designed a peptide that in addition to having a substitution of Valine25 to Leucine, which we previously found to confer resistance to proteinease-3 and neutrophil elastae, also lacked Alanines at positions 49 and 50 (Fig 1A).
Fig 1 CR-AnxA1_2-48 is resistant to neutrophil mediated cleavage and selectively binds the ALX receptor. (A) Aminoacid sequences for CR-AnxA1_2–50 and CR-AnxA1_2–48 (B) Plots depicting the amount of peptide remaining at the indicated intervals in incubations of human neutrophil with CR-AnxA1_2–50 or CR-AnxA1_2–48. Results are mean ± SEM of n = 4 distinct incubations with different neutrophil preparations. *p < 0.05 versus AnxA1_2–48 incubations. (C,D) Binding affinity of CR-AnxA1_2–48 to (C) human ALX-overexpressing and (D) FPR1-overexpressing HEK cells was assessed in a competitive binding assay using [^125I]–Ac2-26. (E) Agonist activity of CR-AnxA1_2–48 was investigated using β-arrestin stably expressing FPR2/ALX. Results for C-E are mean ± SEM of 3–4 independent experiments. TEXT PRINTED IN THE PICTURE: (C) CR-ANXA12-48: IC50= 20 nM

The target of another data set is T1, human ALX receptor (Homo sapiens, UniProt P25090).
T1 construct: expressed in transfected cells; host or cells: HEK cells
T1 sequence (P25090 1-351): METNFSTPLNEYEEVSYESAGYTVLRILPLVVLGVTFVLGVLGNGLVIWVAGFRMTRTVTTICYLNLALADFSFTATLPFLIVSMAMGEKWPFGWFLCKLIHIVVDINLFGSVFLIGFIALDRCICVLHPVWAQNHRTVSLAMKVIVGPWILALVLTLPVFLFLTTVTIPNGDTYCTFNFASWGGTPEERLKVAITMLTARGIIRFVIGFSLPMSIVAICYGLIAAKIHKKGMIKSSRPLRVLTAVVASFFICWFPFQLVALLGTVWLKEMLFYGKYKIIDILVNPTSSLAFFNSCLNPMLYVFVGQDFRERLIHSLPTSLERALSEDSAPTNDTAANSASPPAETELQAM
The data set is described as follows: Competitive binding assay with [125I-Tyr]-Ac2-26 tracer on ALX-HEK transfected cells. To be noted: HEK cells overexpressing human ALX, 1x10^6 cells/ml; tracer 50nM; peptide 0.1nM-10μM; 1h, 4°C; mean of 3-4 independent experiments; read-out: IC50, displacement of 125I labelled Ac2-26 from ALX receptor. The method, then:
Binding experiments were conducted as in [13]. Briefly FPR1-human embryonic kidney (HEK)–or ALX-HEK—transfected cells (1x10^6 cells/ml) were incubated with increasing concentrations of cold CR-AnxA1_2-50, CR-AnxA1_2-48 (0.1nM-10μM) or PBS and a fixed concentration (50nM) of [^125I-Tyr]-Ac2-26 for (1h, 4°C). Bound and unbound tracer were separated by filtration through Whatman GF/C glass microfibre filters (Kent, United Kingdom) using a vacuum manifold, and the amount of tracer bound to the cells was quantified by counting filters in a gamma-counter.
(In general: Loss of bound radioactivity is the signal in a displacement assay; it reports binding, not function.)

The test system of a further data set is ALX. The note with it: cited from earlier work. From the text:
The ALX receptor is a G-protein coupled receptor that mediates the biological actions of a number of pro-resolving molecules including the essential fatty acid derived specialized pro-resolving mediators Resolvin D1, Resolvin D3 and Lipoxin A4 [32].

Several values for one entry are separate records, joined by “and”; a condition that tells them apart may be missing. Equal entries are not always repeated. Where no end group is shown, it is not given here.

In general, IC50 refers to the concentration that gives 50% inhibition. In the case of “AMVSEFLKQAWFIENEEQEYVQTLKSSKGGPGSAVSPYPTFNPSSDV-NH2 [CR-AnxA1_2-48]”, the “Resistance to neutrophil mediated cleavage (amount of peptide remaining)” value in data set [1] is on record as “significant increase in resistance to neutrophil mediated cleavage”. Besides, the IC50 on human ALX receptor was ~20 nM and 20 nM. fMLF: the “Binding affinity to ALX relative to FPR1” value with ALX is on record as “about a log order lower”.
